From patent publication US9044453B2, “Long-acting injectable moxidectin formulations and novel moxidectin crystal forms” (MERIAL, INC., priority 2011, dated 2015)

Assay: Moisture Sorption Gravimetric Analysis (SGA), hygroscopicity
Assay type: physicochemical
Conditions: isothermal 25° C., 5 to 95 % RH
Method: Moisture Sorption Gravimetric Analysis (SGA). Utilizing a dynamic SGA100 from VTI, adsorption and desorption profiles were obtained with the following conditions: 1) Isothermal @ 25° C.; 2) Maximum Equilibration Time of 10 minutes; 3) 0.0010 wt % in 5 minutes; and 4) % RH (Relative Humidity) Steps of 5 to 95, and 95 to 5 @ 5% increments.

Structure (SMILES)	hygroscopicity
CO/N=C1\C[C@]2(C[C@@H]3C[C@@H](C/C=C(\C)C[C@@H](C)/C=C/C=C4\CO[C@@H]5[C@H](O)C(C)=C[C@@H](C(=O)O3)[C@]45O)O2)O[C@H](/C(C)=C/C(C)C)[C@H]1C [amorphous moxidectin, moxidectin]	slightly hygroscopic
CO/N=C1\C[C@]2(C[C@@H]3C[C@@H](C/C=C(\C)C[C@@H](C)/C=C/C=C4\CO[C@@H]5[C@H](O)C(C)=C[C@@H](C(=O)O3)[C@]45O)O2)O[C@H](/C(C)=C/C(C)C)[C@H]1C [Crystalline moxidectin, moxidectin]	almost non-hygroscopic
